Here are results for ten compounds from US9981950B2, “Triazoles as NR2B receptor inhibitors” (Janssen Pharmaceuticals, Inc., priority 2014, dated 2018).

In general, IC50 refers to the concentration at which inhibition is half-maximal.

A value given as a limit tells only on which side of the number the result lay.

In experiment [1] the target is cloned human NR1/NR2B ion channels (Homo sapiens (Human), UniProt Q05586+Q13224). In words: HNR2BC: calcium influx assay on cloned human NR1/NR2B ion channels expressed in HEK cells. The experiment is classed as cell-based. The conditions noted are these: HEK cells hNR1/NR2B, 100 μM glutamate + 100 μM glycine, 3 parameter plot. How it is done:
HNR2BC: Effects of Test Articles on Cloned Human NR1/NR2B Ion Channels Expressed in Mammalian Cells
The ability of test compounds to act as an antagonist of NR1/NR2B were evaluated with a calcium influx assay (Calcium 5 Assay Kit, Molecular Devices).
For the antagonist assessment, NR1/NR2B was activated with the positive control agonist (Mg^2+-free HBPS+100 μM glutamic acid+100 μM glycine). The effect of each test article to inhibit the signal was examined after agonist stimulation and compared to the positive control antagonist (MK-801).
A HEK cell line, stable transfected with hNR1/NR2B was used. This tetracycline inducible cell line is transfected with GRIN1 (GeneBank accession number NM 007327.2) and GRIN2B (GeneBank accession number NM_000834.3.). The cells were cultured in cell culture flasks with DMEM/F12 supplemented with 10% FCS, 1% PenStrep and a selection of additional antibiotics.
Forty-Eight (48) hours before the assay the cells were plated into 96-well black well, flat clear bottom microtiter plates at a density of 50000 cells/well. Twenty-Four (24) hours later the receptor expression was induced by the addition of 1 μg/ml tetracycline in the presence of 2 mM ketamine and 200 μM 7-CKA. After 24 h of receptor induction the plates were used for the assay.
The medium was removed and the cells were loaded with 200 μl loading buffer (Molecular Devices) in Mg2+-free HBPS containing 100 μM 7-CKA at 37° C. for one (1) hour.
The test compounds were then solubilized in 100% DMSO and diluted to yield eight (8) different concentrations in 100% DMSO. A 96 well drug plate was prepared by diluting with water and glycine/glutamate to a 5-fold of final test concentration. Fluorescence intensity of the cells in the plate was measured in a FlexStation using an excitation wavelength of 485 nm and an emission wavelength of 525 nm. Twenty (20) seconds after starting the recordings the compounds together with the agonists glycine (100 μM) and glutamate (100 μM) were added into the wells and the fluorescence measured for ninety (90) seconds in summary.
The IC50 values provided in the paragraph below were determined using a 3 parameter plot.

For the next experiment, the target named is hERG-receptor (Homo sapiens (Human), UniProt Q12809). Nature of the experiment: HERGBD: inhibition of specific 3H-Dofetilide binding to the hERG-receptor. The conditions noted are these: HEK cell membranes with human ERG, Hill-plot 2-parameter-model. Summed up: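 Membranes from HEK cells stably expressing human ERG incubated 90 min at RT with 1.5 nmol/l 3H-dofetilide in 20 mM HEPES/0.1 mM KCl pH 7.2, inhibitor in 1% DMSO. Nonspecific binding with […] dofetilide; bound ligand separated by filtration and scintillation counted.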
Sequence of hERG-receptor (Q12809 whole entry): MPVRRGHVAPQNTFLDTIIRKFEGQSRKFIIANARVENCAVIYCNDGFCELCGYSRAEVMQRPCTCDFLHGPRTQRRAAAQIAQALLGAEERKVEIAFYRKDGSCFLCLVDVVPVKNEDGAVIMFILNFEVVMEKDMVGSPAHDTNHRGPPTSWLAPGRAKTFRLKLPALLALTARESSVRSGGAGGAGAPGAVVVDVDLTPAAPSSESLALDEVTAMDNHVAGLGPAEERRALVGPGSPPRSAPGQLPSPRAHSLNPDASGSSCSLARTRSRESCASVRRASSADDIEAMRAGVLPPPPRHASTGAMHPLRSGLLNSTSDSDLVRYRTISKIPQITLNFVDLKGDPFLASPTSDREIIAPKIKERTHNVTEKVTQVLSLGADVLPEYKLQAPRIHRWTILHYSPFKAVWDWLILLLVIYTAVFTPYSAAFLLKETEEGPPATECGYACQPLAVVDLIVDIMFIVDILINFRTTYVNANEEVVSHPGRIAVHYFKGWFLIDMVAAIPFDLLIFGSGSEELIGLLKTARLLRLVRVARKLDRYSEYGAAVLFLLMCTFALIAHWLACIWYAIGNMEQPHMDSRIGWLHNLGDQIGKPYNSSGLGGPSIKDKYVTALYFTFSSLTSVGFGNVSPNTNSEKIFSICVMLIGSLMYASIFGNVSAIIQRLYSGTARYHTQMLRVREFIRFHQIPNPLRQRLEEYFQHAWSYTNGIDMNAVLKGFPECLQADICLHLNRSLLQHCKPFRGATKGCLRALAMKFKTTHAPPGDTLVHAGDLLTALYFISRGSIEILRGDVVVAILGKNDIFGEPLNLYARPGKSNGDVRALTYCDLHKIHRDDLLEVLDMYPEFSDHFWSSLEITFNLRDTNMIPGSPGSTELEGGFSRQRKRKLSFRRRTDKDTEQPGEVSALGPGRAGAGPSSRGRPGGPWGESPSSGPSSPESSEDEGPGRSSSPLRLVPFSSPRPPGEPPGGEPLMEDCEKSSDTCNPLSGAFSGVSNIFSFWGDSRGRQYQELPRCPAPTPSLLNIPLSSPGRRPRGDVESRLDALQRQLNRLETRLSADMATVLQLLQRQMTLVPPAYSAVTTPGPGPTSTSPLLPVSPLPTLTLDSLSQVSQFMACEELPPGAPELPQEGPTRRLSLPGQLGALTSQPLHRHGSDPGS
For orientation: Block of hERG is tested as a sign of cardiac risk.

Another experiment concerns the target rat NR1/NR2B receptor (Rattus norvegicus (Rat), UniProt P35439+Q00960). In words: RRNR2BB: inhibition of specific binding to the rat NR1/NR2B receptor. As to conditions: [3H]-Ifenprodil binding, rat brain membranes, Hill-plot 2-parameter-model. In short, it runs like this:
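Washed membranes from male Wistar rat forebrain (whole brain minus cerebellum) in 5 mM Tris/1 mM EDTA pH 7.4 used in ifenprodil-site binding, 60 min at 4° C. Nonspecific binding defined with […] CP101.606; bound separated by filtration on PEI-soaked filters. IC50 from Hill plot, 2-parameter model.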

Sequence of cloned human NR1/NR2B ion channels (Q13224 27-1484, other chains not shown): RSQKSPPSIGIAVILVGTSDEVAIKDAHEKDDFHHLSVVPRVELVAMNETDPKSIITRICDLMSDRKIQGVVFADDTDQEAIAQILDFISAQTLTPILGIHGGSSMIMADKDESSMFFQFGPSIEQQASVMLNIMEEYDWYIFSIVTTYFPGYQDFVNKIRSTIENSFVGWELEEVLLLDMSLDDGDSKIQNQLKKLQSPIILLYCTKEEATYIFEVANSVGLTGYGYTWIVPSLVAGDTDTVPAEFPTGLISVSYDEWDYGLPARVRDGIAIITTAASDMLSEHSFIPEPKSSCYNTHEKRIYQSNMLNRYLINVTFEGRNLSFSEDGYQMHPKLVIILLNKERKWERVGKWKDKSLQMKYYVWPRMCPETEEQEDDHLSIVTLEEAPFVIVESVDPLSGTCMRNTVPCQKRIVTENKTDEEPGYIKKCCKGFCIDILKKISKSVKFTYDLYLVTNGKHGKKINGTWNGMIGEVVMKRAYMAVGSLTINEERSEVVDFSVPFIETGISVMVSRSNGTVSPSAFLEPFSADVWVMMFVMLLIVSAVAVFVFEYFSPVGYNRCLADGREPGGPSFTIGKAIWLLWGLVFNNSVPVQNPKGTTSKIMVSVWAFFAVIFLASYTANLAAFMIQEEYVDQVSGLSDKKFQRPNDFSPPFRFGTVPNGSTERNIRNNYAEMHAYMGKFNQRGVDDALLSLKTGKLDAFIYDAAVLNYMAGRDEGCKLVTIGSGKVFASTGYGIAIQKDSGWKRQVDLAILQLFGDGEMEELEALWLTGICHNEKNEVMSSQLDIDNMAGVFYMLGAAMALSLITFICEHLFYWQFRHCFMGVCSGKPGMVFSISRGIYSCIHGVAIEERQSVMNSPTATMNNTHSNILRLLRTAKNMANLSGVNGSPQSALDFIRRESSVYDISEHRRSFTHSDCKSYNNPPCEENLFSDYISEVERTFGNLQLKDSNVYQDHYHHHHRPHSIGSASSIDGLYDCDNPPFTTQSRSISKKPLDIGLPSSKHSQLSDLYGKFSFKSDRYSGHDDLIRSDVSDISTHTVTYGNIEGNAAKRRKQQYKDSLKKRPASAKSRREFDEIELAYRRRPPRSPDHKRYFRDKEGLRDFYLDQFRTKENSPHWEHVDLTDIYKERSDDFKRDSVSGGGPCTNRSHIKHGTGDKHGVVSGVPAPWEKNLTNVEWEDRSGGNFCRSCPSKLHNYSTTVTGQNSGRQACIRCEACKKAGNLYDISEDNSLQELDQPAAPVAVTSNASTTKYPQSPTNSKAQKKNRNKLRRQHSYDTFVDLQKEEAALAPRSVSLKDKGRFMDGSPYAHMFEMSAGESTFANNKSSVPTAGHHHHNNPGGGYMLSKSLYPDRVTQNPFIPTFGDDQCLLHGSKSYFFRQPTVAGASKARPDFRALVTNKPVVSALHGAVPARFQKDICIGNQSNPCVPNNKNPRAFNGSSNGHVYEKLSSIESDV
Sequence of rat NR1/NR2B receptor (Q00960 27-1482, other chains not shown): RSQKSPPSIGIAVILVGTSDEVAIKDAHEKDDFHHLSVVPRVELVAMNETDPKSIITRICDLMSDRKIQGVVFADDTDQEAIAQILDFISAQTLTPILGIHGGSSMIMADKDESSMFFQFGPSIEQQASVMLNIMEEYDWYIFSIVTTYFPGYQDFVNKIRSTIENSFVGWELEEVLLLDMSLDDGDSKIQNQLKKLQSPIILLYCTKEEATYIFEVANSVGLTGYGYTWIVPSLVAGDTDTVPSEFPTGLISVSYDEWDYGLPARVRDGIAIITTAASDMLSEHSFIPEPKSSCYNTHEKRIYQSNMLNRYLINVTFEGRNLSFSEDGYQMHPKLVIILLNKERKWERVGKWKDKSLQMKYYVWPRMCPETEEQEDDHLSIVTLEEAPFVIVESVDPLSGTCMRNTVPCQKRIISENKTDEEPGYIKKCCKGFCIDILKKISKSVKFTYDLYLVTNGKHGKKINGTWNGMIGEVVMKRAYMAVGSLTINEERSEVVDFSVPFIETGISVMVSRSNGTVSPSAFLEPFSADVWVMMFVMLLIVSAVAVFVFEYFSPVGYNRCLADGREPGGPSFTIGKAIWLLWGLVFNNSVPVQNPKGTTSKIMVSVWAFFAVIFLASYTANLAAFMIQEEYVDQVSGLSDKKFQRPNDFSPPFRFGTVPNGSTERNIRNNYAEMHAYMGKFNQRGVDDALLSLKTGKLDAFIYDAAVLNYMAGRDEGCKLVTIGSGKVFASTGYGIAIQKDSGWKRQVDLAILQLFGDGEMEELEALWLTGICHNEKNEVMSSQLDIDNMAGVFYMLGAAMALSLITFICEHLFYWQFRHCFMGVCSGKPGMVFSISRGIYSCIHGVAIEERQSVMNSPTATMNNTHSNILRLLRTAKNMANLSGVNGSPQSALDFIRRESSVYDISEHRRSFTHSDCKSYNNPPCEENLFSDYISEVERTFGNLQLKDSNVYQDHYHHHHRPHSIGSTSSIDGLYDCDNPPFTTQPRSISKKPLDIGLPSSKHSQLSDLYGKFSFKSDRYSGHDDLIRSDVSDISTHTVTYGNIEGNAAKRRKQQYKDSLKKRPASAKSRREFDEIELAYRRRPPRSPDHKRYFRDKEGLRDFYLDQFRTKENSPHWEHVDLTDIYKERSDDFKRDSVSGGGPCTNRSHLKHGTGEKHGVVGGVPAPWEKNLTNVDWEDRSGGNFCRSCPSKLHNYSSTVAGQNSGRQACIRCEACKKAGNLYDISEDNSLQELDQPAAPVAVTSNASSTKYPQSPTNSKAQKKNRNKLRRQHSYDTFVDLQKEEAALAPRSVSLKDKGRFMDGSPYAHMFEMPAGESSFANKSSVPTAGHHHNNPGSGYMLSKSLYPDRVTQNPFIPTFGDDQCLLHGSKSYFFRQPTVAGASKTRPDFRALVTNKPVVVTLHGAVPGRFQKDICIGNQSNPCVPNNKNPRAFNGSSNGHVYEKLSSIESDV

With `Nc1nccn1Cc1cn(-c2ccc(Cl)c(C(F)F)c2)nn1` [Example 113A, 4-(2-amino-imidazol-1-ylmethyl)-1-(4-chloro-3-difluoromethyl-phenyl)-1H-[1,2,3]triazole], the IC50 in experiment [1] was determined as 0.84 µM; at hERG-receptor it was 3.09 µM; on rat NR1/NR2B receptor it was 0.65 nM.

`Cc1nccn1Cc1cn(-c2ccc(F)c(C(F)F)c2)nn1` [Example 81, 1-(3-Difluoromethyl-4-fluoro-1-phenyl)-4-(2-methyl-imidazol-1-ylmethyl)-1H-[1,2,3]triazole]: the half-inhibitory concentration (IC50) turned out to be 3.79 µM in experiment [1], 14.3 µM on hERG-receptor and 3.83 nM at rat NR1/NR2B receptor.

For the compound `CC(F)(F)c1cc(-n2cc(Cn3ccnc3N)nn2)ccc1F` [Example 114], the figures for the IC50 (in experiment [1]; on hERG-receptor; on rat NR1/NR2B receptor) were 2.34 µM, 4.31 µM and 0.51 nM, respectively.

Take `Cn1nccc1Cc1cn(-c2ccc(F)c(Cl)c2)nn1` [Example 109, 1-(3-Chloro-4-fluoro-phenyl)-4-(2-methyl-2H-pyrazol-3-ylmethyl)-1H-[1,2,3]triazole]: the half-maximal inhibitory concentration (IC50) in experiment [1] was 109 µM; on hERG-receptor it was above 100 µM; on rat NR1/NR2B receptor, 4320 nM.

Regarding `Cc1nccn1Cc1cn(-c2ccc(Cl)c(OC(F)F)c2)nn1` [Example 93, 1-(4-Chloro-3-difluoromethoxy-phenyl)-4-(2-methyl-imidazol-1-ylmethyl)-1H-[1,2,3]triazole], the IC50 in experiment [1] was 0.41 µM; at hERG-receptor it was 9.6 µM; on rat NR1/NR2B receptor it was 1.2 nM.

For the compound `OCCc1nccn1Cc1cn(-c2ccc(F)c(OC(F)F)c2)nn1` [Example 101, 1-(3-Difluoromethoxy-4-fluoro-phenyl)-4-[2-(2-hydroxy-ethyl)-imidazol-1-ylmethyl]-1H-[1,2,3]triazole], the results for the IC50 (in experiment [1]; at hERG-receptor; at rat NR1/NR2B receptor) were 1.65 µM, 36.7 µM and 4.26 nM, respectively.

Take `Nc1nccn1Cc1cn(-c2ccc(F)c(C(F)F)c2)nn1` [Example 113B, 4-(2-amino-imidazol-1-ylmethyl)-1-(4-fluoro-3-difluoromethyl-phenyl)-1H-[1,2,3]triazole]: the values for the IC50 (in experiment [1]; at hERG-receptor; on rat NR1/NR2B receptor) were 0.66 µM, 11 µM and 0.48 nM, respectively.

As for `Fc1ccc(-n2cc(Cn3ccnc3C3CC3)nn2)cc1C(F)F` [Example 82, 4-(2-Cyclopropyl-imidazol-1-ylmethyl)-1-(3-difluoromethyl-4-fluoro-phenyl)-1H-[1,2,3]triazole], the IC50 in experiment [1] is 4.89 µM; on hERG-receptor, 15.7 µM; on rat NR1/NR2B receptor it was 16.2 nM.

For the compound `CC(C)c1nccn1Cc1cn(-c2ccc(F)c(C(F)F)c2)nn1` [Example 84, 1-(3-Difluoromethyl-4-fluoro-phenyl)-4-(2-isopropyl-imidazol-1-ylmethyl)-1H-[1,2,3]triazole], the IC50 in experiment [1] was 4.2 µM; on hERG-receptor, 25.1 µM; at rat NR1/NR2B receptor, 11 nM.

With `CC(C)c1nccn1Cc1cn(-c2ccc(Cl)cc2)nn1` [Example 23, 1-(4-Chloro-phenyl)-4-(2-isopropyl-imidazol-1-ylmethyl)-1H-[1,2,3]triazole], the IC50 in experiment [1] came out at 17.5 µM; on hERG-receptor it was 7.94 µM; at rat NR1/NR2B receptor, 77.4 nM.
